According to patent publication US20260151398A1, “COMPOUNDS FOR REDUCING CHOLESTEROL AND TREATING LIVER AND KIDNEY DISEASE” (McMaster University, priority 2021, published 2026):

Legend:
[1] = tested on: PCSK9; test: PCSK9 expression in hepatocytes (immunoblot, real-time PCR); format: cell-based, human, mouse; conditions: HuH7; ryanodine 10 μM, CDN 100 μM, 2 APB 50 μM; presence or absence of TG; 24 h
Method: (§1) HuH7 and HepG2 cells were routinely grown in complete Dulbecco's Modified Eagle's Medium (Gibco, Thermofisher Scientific) supplemented with 10% fetal bovine serum (Sigma-Aldrich) and 100 U/ml of penicillin and streptomycin (Sigma-Aldrich). […] All cell treatments were carried out for 24 h unless otherwise stated. Cells were transfected with a cocktail consisting of plasmid DNA (1 μg), X-tremeGENE HP (3 μl; Thermofisher Scientific) and opti-MEM (100 μl; Thermofischer Scientific) per 1 ml complete medium containing plated cells. Human PCSK9 was overexpressed using the bicistronic pIRES-EGFP plasmid; calnexin using the mPA-GFP-N1 plasmid. To block the expression of GRP78 and CD36, siGENOME smartpool siRNA was purchased from GE Dharmacon (M-008198-02 and L-010206-00-0005 respectively) and transfected using lipofectamine RNAiMAX as per manufacturer's protocol.
(§2) Cells were washed in phosphate-buffered saline (PBS), lysed in 4× SDS-PAGE lysis buffer and separated on 7-10% polyacrylamide gels in denaturing conditions. Gels were transferred to nitrocellulose membranes using the BioRad mini trans-blot system, blocked in 5% skim milk in tris-buffered saline (TBS) for 1 h and incubated in primary antibody overnight for 16 h at 4° C. Membranes were then exposed to horse radish peroxidase conjugated secondary antibodies and visualized using EZ-ECL chemiluminescent reagent (Froggabio). Band intensities were quantified using ImageJ software ([…]) against membranes reprobed for housekeeping proteins.
(§3) RNA purification/isolation was performed using RNeasy mini kits (Qiagen) and normalized to 2 μg RNA using a NanoDrop® spectrophotometer. Samples were then reverse transcribed into cDNA using Superscript Vilo cDNA Synthesis kit (Thermofisher Scientific). Real-time PCR was executed with Fast SYBR Green (Thermo Fisher Scientific) using the ΔΔct method on the ViiA7 real-time PCR platform (Thermofisher Scientific).
Cultured immortalized hepatocytes known to express and secrete PCSK9 (Lebeau, P., et al., 2017), including HuH7 and HepG2 cells, as well as primary mouse- and human-hepatocytes (PMH and PHH, respectively), were treated with CF for 24 h and assessed for PCSK9 expression via immunoblots and real-time PCR (FIG. 1 A to D). […] Given that sterol deprivation represents another well-established promoter of SREBP2 activation (Lebeau, P., et al., 2017), cells were also treated with CF in the presence and absence of U18666A (U18) that depletes intracellular sterols. […] Next, HepG2 cells were treated with an increasing dose of CF.

[2] = tested on: ER stress markers (GRP78, ATF4, pPERK, IRE1α, sXBP1, ATF6); test: ER stress / UPR readouts in hepatocytes; format: cell-based, human; conditions: HuH7; with TG 100 nM
Method: as §2
Following treatment, live cells were incubated in complete DMEM containing 5 μM Thioflavin-T (ThT; Thermofisher Scientific) for 15 minutes. Cells were then fixed in 4% paraformaldehyde and mounted with permafluor. Fluorescent staining was visualized using the EVOS FL colour system at either 20 or 40× magnification.
as §3
Because ER Ca^2+ depletion induces a compensatory unfolded protein response (UPR), it was also postulated that CF may attenuate UPR marker expression by increasing ER Ca^2+ levels. […] Reactive oxygen species production, a process known to occur during conditions of ER stress, was also attenuated by CF (FIG. 9 H). […] While increasing the protein binding ability of chaperones, such as GRP78, CF also attenuates SREBP2-driven gene expression (FIG. 7 L).

[3] = tested on: PCSK9; test: PCSK9 secretion from cultured and primary hepatocytes (ELISA of medium); format: cell-based, human, mouse; conditions: ELISA of medium
Method: as §1
(§4) Secreted PCSK9 levels were assessed directly in cell culture medium of cells grown in FBS-free medium for 24 h or in the serum isolated from either mice or human subjects. Mouse PCSK9 was measured using the Quantikinine® ELISA kit (#MCP900, R&D Systems) and human PCSK9 using the PCSK9 Quantikinine® ELISA kit (#DCP900, R&D Systems). Serum ApoB levels were also quantified using ELISAs (#DAPB00, R&D Systems). Serum samples were diluted as per manufacturer's instructions.
All animal studies were carried out in 8 h-fasted male wild-type, Pcsk9^−/− or Ampkβ1^−/− mice on the C57BL/6J background. CF (25-100 mg/kg-8 h) and CDN (50 mg/kg) treatments were administered via intraperitoneal injection unless specified otherwise. Primary mouse hepatocytes were isolated using a two-step process with EGTA ([…] in HEPES buffer, Sigma Aldrich) and collagenase (0.05% in HEPES buffer, Sigma Aldrich) in 12-week-old male mice on the C57BL/6J background. Cells were then washed, centrifuged, and plated following isolation in cell strainers. Hepatosure® 100-donor pooled primary human hepatocytes were purchased from Xenotech. Primary hepatocytes were regularly grown in William's E medium (Gibco, Thermo Fisher Scientific) containing 10% fetal bovine serum, 100 IU/ml penicillin, and 100 µg/ml streptomycin.

[4] = tested on: PCSK9; test: Secreted PCSK9 levels in HepG2 cells (ELISA); format: cell-based, human; conditions: for PCSK9 mRNA expression and secreted levels with increasing doses / reduction of secreted PCSK9 levels compared to CF at the same dose: HepG2; for PCSK9 reduction (100 nM): Table 6, HepG2 cells, 24 h, 100 nM as printed in the cell; for efficacy for PCSK9 inhibition compared with caffeine: initial screening
Method: as §1, §4
CF, however, is a well-characterized compound having several health benefits with few known adverse effects. Achieving an optimal level of PCSK9 inhibition absent of the neuro-excitatory effect of CF, however, may be a challenge for the long-term clinical application of these findings. […] See Table 6 for the structure activity relationships of several other known xanthine-based compounds explored at varying doses in HepG2 cells for 24 h.

[5] = tested on: HepG2 hepatocytes; test: LDH cytotoxicity assay in HepG2 hepatocytes; format: cell-based, human; conditions: cultured HepG2 hepatocytes
Method: Secreted PCSK9 levels were assessed using ELISAs and mRNA transcript via real-time PCR. […] Secreted PCSK9, as well as PCSK9 mRNA and SREBP2 mRNA were assessed in these cells. (E) The cytotoxicity of these agents was examined using an LDH assay. […] (G) The uptake of DiI-LDL was also quantified in these cells using a spectrophotometer. Values are presented as the mean and error bars as SD. *, p<0.05 vs. vehicle; NS, non-significant.

[6] = tested on: SREBP2; test: SREBP2 expression and activation in hepatocytes (real-time PCR, SRE-GFP reporter, immunoblot, immunofluorescence); format: cell-based, human, mouse; conditions: HepG2, real-time PCR
Method: as §2
Cells were plated in 4-well chamber slides and incubated in complete DMEM for 24 h and exposed to treatments 24 h later for an additional 24 h. Cells were fixed with 4% paraformaldehyde for 30 minutes and washed with either non-permeabilizing, or permeabilizing PBS containing 0.025% Triton-X. Cells were then blocked with 1% bovine serum albumin (BSA) for 30 minutes and stained with anti-GFP antibody for 1 h in PBS containing 1% BSA. Afterwards, cells were washed and incubated with Alexa 488 fluorescently-labelled secondary antibodies (Thermofisher Scientific), as well as the DAPI nuclear stain. Slides were then mounted with permafluor and visualized using the EVOS FL colour imaging system at either 20 or 40× magnification.
as §3
Therefore, the effect of CF on TG-; induced SREBP2 activation was examined. […] SREBP2 activity was then examined at the protein level in HuH7 cells transfected with a plasmid encoding GFP driven by the sterol regulatory element (SRE-GFP; FIG. 2E to G). […] GFP expression was also visualized via immunofluorescent staining and quantified using ImageJ Software.

[7] = tested on: HepG2 cells; test: DiI-LDL uptake assay in HepG2 cells; format: cell-based, human; conditions: for DiI-LDL cholesterol uptake: HepG2, 10 μM
Method: During the last 5 h of treatment (h 19 to 24) cells were exposed to DiI-LDL (10 μg/ml) and then washed with two changes of pre-warmed (37° C.) HBSS containing 20 mM HEPES prior to analysis.
(§5) The uptake and accumulation of DiI-LDL was then quantified using a fluorescent spectrophotometer (Molecular Devices). […] Live-cell staining of the LDLR was also performed in HepG2 cells exposed to DiI-LDL (FIG. 11 D).

[8] = tested on: LDLR; test: LDLR / CD36 expression in cultured hepatocytes; format: cell-based, human; conditions: HepG2, 10 μM, immunofluorescent staining
From the text: as §2, with “Gels were transferred to nitrocellulose membranes using the BioRad mini trans-blot system, blocked in 5% skim milk in tris-buffered saline (TBS) for 1 h and incubated in primary antibody overnight for 16 h at 4° C.” left out
Slides were then mounted with permafluor and visualized using the EVOS FL colour imaging system at either 20 or 40× magnification.
as §3, §5

NCCOB(c1ccccc1)c1ccccc1 [2 APB, 2-APB]
SREBP2 and PCSK9 mRNA transcript level [1]: blocked SREBP2 and PCSK9 at the mRNA transcript level
TG-induced GRP78 expression [2]: blocked TG-induced expression
PCSK9 secretion with Ca2+-modulating agents [3]: blocked PCSK9 secretion

Cn1c(=O)c2c(nc(/C=C/c3cccc(Cl)c3)n2C)n(C)c1=O [8CC, 8-(3-Chlorostyryl) CF]
PCSK9 mRNA expression and secreted levels with increasing doses [4]: dose-dependent reduction

Cn1c(=O)c2[nH]c(C3CCCC3)nc2n(C)c1=O [8CD, 8-cyclopentyl-1,3-dimethylxanthine]
PCSK9 mRNA expression and secreted levels with increasing doses [4]: dose-dependent reduction

Cn1c(=O)c2[nH]c(-c3ccncc3)nc2n(C)c1=O [I-9]
PCSK9 reduction (100 nM) [4]: 0.86 (100 nM)

Cn1c(=O)c2[nH]c(-c3ccc([N+](=O)[O-])cc3)nc2n(C)c1=O [I-10]
PCSK9 reduction (100 nM) [4]: 0.93 (100 nM)

Cn1c(=O)c2[nH]c(-c3cc(F)c(F)cc3F)nc2n(C)c1=O [Ia-1]
cytotoxicity (LDH assay) [5]: did not exhibit cytotoxic properties
PCSK9 and SREBP2 mRNA [6]: antagonism of SREBP2 reduced de novo synthesis of PCSK9
reduction of secreted PCSK9 levels compared to CF at the same dose [4]: 2 fold
efficacy for PCSK9 inhibition compared with caffeine [4]: significantly greater efficacy for PCSK9 inhibition than caffeine
DiI-LDL cholesterol uptake [7]: significant increase
cell-surface LDLR expression [8]: significant increase in LDLR expression

Cn1c(=O)c2[nH]c(-c3ccc([N+](=O)[O-])o3)nc2n(C)c1=O [Ia-7]
cytotoxicity (LDH assay) [5]: did not exhibit cytotoxic properties
PCSK9 and SREBP2 mRNA [6]: antagonism of SREBP2 reduced de novo synthesis of PCSK9
reduction of secreted PCSK9 levels compared to CF at the same dose [4]: 2 fold
efficacy for PCSK9 inhibition compared with caffeine [4]: significantly greater efficacy for PCSK9 inhibition than caffeine
DiI-LDL cholesterol uptake [7]: significant increase
cell-surface LDLR expression [8]: significant increase in LDLR expression

CCCn1c(=O)[nH]c2nc(-c3ccc(S(=O)(=O)N4CCN(c5ccc(Cl)cc5)CC4)cc3)[nH]c2c1=O [PSB603]
PCSK9 mRNA expression and secreted levels with increasing doses [4]: dose-dependent reduction

CCN(CC)CCO[C@H]1CC[C@@]2(C)C(=CC[C@@H]3[C@@H]2CC[C@]2(C)C(=O)CC[C@@H]32)C1 [U18, U18666A]
PCSK9 secretion with Ca2+-modulating agents [3]: increased PCSK9 secretion
LDLc (DiI-LDL) uptake ([7]; HepG2, 24 h treatment, DiI-LDL 5 h): reduced LDLc uptake

Cn1c(=O)[nH]c2ncn(C)c2c1=O [paraxanthine]
PCSK9 mRNA expression and secreted levels with increasing doses [4]: dose-dependent reduction

CCCCCCCC/C=C\CCCCCCCC(=O)ON1C(=O)CC(S(=O)(=O)O)C1=O (stereo not shown) [sulfosuccinimidyl oleate]
effect of CD36 inhibition on CF-mediated DiI-LDL uptake ([7]; HepG2): failed to affect CF-mediated DiI-LDL uptake

Cn1cnc2c1c(=O)[nH]c(=O)n2C [theobromine]
PCSK9 mRNA expression and secreted levels with increasing doses [4]: dose-dependent reduction
